Measurements reported in ChEMBL document CHEMBL5108011, “Design, synthesis and antitumor evaluation of ATP dual-mimic 2,4-diarylaminopyrimidine and aminoindazole conjugates as potent anaplastic lymphoma kinase inhibitors” (Eur J Med Chem, 2022).

How the values were obtained:
KARPAS-299 = test: cells; conditions: Homo sapiens, KARPAS-299, 72 h
Description: Antiproliferative activity against NPM-ALK-positive human KARPAS-299 cells incubated for 72 hrs and measured by CCK-8 assay

NCI-H3122 = test: cells; conditions: Homo sapiens, NCI-H3122, 72 h
Description: Antiproliferative activity against EML4-ALK-positive human NCI-H3122 cells incubated for 72 hrs and measured by CCK-8 assay

NCI-H2228 [1] = test: cells; conditions: Homo sapiens, NCI-H2228, 72 h
Description: Antiproliferative activity against EML4-ALK-positive human NCI-H2228 cells incubated for 72 hrs and measured by CCK-8 assay

A549 = test: cells; conditions: Homo sapiens, A549, 72 h
Description: Antiproliferative activity against EGFR-positive human A549 cells incubated for 72 hrs and measured by CCK-8 assay

MCF7 = test: Antiproliferative activity against human MCF7 cells incubated for 72 hrs and measured by CCK-8 assay; type: functional, cell-based; conditions: MCF7, 72 h
PC-3 = test: Antiproliferative activity against human PC-3 cells incubated for 72 hrs and measured by CCK-8 assay; type: functional, cell-based; conditions: PC-3, 72 h
NCI-H2228 [2] = test: Induction of apoptosis in EML4-ALK-positive human NCI-H2228 cells assessed as apoptotic rate at 100 nM measured after 48 hrs by annexin V-FITC/propidium iodide staining based flow cytometry (reference value: 6.6%); type: functional
[3] = Cytotoxicity against human HELF cells incubated for 72 hrs and measured by CCK-8 assay; type: toxicity, cell-based
NCI-H1581 = test: Antiproliferative activity against human NCI-H1581 cells incubated for 72 hrs and measured by CCK-8 assay; type: functional, cell-based; conditions: NCI-H1581, 72 h
HCT-116 = test: Antiproliferative activity against human HCT-116 cells incubated for 72 hrs and measured by CCK-8 assay; type: functional, cell-based; conditions: HCT-116, 72 h
[4] = biological target: ALK tyrosine kinase receptor (Homo sapiens, UniProt Q9UM73, L1196M); test: Inhibition of ALK L1196M mutant (unknown origin) incubated for 1 hr and measured by mobility shift assay
Chain of ALK tyrosine kinase receptor (Homo sapiens, UniProt Q9UM73, L1196M) (Q9UM73 19-1620 L1196M limits assumed): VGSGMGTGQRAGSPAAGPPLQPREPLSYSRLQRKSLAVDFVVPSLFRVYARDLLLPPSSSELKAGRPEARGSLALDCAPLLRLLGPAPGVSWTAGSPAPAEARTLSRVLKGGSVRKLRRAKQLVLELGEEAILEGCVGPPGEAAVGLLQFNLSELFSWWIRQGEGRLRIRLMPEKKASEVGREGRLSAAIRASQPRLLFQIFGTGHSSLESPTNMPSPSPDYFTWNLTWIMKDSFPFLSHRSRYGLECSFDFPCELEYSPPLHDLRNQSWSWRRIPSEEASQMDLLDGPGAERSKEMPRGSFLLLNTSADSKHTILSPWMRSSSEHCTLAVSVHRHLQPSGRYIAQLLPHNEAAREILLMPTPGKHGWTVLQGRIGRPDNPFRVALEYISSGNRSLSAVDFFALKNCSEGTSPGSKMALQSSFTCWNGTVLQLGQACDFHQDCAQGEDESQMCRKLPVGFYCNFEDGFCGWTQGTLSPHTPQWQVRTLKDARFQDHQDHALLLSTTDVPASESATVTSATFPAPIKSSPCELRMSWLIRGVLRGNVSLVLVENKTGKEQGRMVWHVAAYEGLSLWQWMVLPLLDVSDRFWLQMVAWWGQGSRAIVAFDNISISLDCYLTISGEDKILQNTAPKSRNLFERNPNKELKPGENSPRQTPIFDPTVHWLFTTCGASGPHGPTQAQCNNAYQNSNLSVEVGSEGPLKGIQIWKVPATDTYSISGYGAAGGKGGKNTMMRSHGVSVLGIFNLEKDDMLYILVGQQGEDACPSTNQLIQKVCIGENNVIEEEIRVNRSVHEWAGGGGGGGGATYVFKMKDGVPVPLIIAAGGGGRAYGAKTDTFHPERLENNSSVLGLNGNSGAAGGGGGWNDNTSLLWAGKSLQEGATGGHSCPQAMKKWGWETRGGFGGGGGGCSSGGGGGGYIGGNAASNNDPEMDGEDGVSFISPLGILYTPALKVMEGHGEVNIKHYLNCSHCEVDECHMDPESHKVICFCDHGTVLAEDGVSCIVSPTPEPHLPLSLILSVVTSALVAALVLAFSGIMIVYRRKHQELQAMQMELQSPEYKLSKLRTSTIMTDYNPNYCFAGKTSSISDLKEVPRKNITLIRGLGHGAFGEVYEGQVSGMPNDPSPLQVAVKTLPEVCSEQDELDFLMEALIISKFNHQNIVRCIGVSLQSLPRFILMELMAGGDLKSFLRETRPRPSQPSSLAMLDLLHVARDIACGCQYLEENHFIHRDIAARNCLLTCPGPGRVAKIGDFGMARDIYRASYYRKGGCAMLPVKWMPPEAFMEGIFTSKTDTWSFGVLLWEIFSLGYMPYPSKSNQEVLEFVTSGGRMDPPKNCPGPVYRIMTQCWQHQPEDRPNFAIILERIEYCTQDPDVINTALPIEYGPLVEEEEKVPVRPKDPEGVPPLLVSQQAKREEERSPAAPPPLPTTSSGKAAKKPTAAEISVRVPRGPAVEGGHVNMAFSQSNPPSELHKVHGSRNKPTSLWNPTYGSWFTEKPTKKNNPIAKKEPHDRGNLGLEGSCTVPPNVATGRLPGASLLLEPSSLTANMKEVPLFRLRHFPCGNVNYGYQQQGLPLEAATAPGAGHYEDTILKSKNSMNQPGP

[5] = biological target: ALK tyrosine kinase receptor (Homo sapiens, UniProt Q9UM73); test: Inhibition of ALK (unknown origin) incubated for 1 hr and measured by mobility shift assay
Chain of ALK tyrosine kinase receptor (Homo sapiens, UniProt Q9UM73) (Q9UM73 whole entry): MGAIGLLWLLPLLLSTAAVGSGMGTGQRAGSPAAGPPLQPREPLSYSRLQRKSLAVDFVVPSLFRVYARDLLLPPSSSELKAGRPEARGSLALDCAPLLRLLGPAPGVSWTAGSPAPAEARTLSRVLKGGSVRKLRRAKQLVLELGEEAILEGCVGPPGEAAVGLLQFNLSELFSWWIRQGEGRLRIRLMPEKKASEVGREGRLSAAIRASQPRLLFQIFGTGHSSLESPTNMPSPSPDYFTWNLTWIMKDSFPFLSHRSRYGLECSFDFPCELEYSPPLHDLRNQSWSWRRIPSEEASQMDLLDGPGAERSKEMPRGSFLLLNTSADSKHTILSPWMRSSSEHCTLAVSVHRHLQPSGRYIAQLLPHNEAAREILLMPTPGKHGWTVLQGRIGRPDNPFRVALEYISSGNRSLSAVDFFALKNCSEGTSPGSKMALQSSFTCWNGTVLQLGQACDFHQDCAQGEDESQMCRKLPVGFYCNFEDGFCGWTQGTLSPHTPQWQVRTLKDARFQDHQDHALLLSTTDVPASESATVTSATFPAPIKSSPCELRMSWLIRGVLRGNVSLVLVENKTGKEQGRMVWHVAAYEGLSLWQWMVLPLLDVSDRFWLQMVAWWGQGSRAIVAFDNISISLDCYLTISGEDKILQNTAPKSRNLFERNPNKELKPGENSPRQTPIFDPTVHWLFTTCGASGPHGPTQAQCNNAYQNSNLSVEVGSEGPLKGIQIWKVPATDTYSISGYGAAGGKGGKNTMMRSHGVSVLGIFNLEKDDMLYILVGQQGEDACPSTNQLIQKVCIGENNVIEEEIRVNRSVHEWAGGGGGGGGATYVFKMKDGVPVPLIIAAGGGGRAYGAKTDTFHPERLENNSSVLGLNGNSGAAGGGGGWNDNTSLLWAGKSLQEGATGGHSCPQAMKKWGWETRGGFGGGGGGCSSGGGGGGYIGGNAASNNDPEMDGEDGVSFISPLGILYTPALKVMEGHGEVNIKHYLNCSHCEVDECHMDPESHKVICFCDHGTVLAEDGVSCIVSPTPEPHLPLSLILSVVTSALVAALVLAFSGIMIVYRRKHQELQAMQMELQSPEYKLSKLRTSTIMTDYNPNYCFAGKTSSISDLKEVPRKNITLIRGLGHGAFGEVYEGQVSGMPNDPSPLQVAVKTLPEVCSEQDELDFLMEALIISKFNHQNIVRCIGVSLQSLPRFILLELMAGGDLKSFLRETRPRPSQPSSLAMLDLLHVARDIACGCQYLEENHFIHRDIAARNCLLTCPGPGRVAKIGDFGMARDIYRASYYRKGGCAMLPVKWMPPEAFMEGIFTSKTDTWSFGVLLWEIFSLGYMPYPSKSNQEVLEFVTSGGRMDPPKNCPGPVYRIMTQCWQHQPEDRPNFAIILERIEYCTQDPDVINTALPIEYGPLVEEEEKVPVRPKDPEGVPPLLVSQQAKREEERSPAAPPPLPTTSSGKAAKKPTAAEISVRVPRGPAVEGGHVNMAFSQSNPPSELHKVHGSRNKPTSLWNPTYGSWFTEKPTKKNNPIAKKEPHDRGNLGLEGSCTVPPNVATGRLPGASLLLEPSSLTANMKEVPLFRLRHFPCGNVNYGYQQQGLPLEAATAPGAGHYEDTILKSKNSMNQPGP

[6] = biological target: Epidermal growth factor receptor (Homo sapiens, UniProt P00533); test: Inhibition of EGFR (unknown origin) incubated for 1 hr and measured by mobility shift assay
Chain of Epidermal growth factor receptor (P00533 whole entry): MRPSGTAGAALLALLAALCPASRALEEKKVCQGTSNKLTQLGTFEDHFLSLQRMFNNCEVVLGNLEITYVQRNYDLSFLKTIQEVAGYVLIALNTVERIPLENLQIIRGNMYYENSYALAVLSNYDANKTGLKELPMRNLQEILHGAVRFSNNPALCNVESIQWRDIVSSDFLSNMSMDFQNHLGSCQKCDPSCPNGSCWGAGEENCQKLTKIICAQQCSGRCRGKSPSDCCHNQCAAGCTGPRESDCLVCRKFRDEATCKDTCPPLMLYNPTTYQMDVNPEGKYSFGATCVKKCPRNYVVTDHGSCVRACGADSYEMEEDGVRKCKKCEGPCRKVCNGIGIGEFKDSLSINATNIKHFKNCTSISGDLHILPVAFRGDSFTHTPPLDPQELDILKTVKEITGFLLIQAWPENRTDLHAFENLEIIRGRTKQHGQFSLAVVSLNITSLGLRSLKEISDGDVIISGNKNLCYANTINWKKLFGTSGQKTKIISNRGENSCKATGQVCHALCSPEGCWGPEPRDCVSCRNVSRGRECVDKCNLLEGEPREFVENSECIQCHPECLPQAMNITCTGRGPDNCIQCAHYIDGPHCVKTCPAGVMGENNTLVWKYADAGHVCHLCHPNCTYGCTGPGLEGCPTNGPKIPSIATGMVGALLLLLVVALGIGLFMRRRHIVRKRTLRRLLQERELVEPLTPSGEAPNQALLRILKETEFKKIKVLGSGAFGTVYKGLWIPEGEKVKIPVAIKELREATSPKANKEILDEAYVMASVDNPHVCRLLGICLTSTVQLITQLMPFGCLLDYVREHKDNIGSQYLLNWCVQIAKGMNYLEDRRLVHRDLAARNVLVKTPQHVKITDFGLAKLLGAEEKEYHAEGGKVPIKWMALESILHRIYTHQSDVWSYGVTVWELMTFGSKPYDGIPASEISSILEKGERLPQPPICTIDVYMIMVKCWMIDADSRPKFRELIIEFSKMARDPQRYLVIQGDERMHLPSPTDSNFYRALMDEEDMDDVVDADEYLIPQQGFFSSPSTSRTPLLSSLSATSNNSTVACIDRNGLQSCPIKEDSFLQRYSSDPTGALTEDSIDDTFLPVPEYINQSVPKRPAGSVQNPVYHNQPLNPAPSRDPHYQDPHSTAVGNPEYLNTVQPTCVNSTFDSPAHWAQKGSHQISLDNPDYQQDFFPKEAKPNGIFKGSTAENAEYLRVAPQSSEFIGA

[7] = biological target: ALK tyrosine kinase receptor (Homo sapiens, UniProt Q9UM73, G1202R); test: Inhibition of ALK G1202R mutant (unknown origin) incubated for 1 hr and measured by mobility shift assay
Chain of ALK tyrosine kinase receptor (Homo sapiens, UniProt Q9UM73, G1202R) (Q9UM73 19-1620 G1202R limits assumed): as the sequence (Q9UM73 19-1620 L1196M limits assumed) above, with M1178L, G1184R counted along it

SMILES | IC50 (KARPAS-299) [µM] | IC50 (NCI-H3122) [µM] | IC50 (NCI-H2228 [1]) [µM] | IC50 (A549) [µM] | further results
C=CC(=O)Nc1ccccc1Nc1nc(Nc2ccc3c(NC(=O)CN(C)C)n[nH]c3c2)ncc1Cl | 0.899 | 3.49 | 1.81 | 4.49 | –
CNC(=O)c1ccccc1Nc1nc(Nc2ccc3c(NC(=O)CN4CCCCC4)n[nH]c3c2)ncc1Cl | 0.031 | 0.107 | 0.204 | 7.21 | –
CNC(=O)c1ccccc1Nc1nc(Nc2ccc3c(NC(=O)CN4CCSCC4)n[nH]c3c2)ncc1Cl | 0.076 | 0.137 | 0.322 | 1.22 | –
CN(C)CC(=O)Nc1n[nH]c2cc(Nc3ncc(Cl)c(Nc4ccccc4NC(=O)C(Cl)(Cl)Cl)n3)ccc12 | 1.27 | 2.96 | 1.45 | 5.78 | –
Cc1cc(Nc2ncc(Cl)c(Nc3ccccc3S(=O)(=O)C(C)C)n2)c(OC(C)C)cc1C1CCNCC1 [CERITINIB] | 0.024 | 0.043 | 0.066 | 2.77 | IC50 (MCF7): 1.87 µM; IC50 (PC-3): 1.02 µM; Activity (NCI-H2228 [2]): 12.32%; IC50 at 72 h [3]: > 20 µM; IC50 (NCI-H1581): 2.31 µM; IC50 (HCT-116): 1.93 µM
CC(C)S(=O)(=O)c1ccccc1Nc1nc(Nc2ccc3c(NC(=O)CN4CCSCC4)n[nH]c3c2)ncc1Cl | 0.036 | 0.124 | 0.126 | 1.18 | –
CN(C)CC(=O)Nc1n[nH]c2cc(Nc3ncc(Cl)c(Nc4ccccc4NS(C)(=O)=O)n3)ccc12 | 0.132 | 0.245 | 0.339 | 3.44 | –
C/C=C/C(=O)Nc1ccccc1Nc1nc(Nc2ccc3c(NC(=O)CN(C)C)n[nH]c3c2)ncc1Cl | 1.25 | 3.69 | 2.98 | 5.91 | –
CNC(=O)c1ccccc1Nc1nc(Nc2ccc3c(NC(=O)CN(C)C)n[nH]c3c2)ncc1Cl | 0.012 | 0.021 | 0.051 | 2.19 | IC50 [4]: 0.0066 µM; IC50 [5]: 0.0037 µM; IC50 [6]: > 1 µM; IC50 [7]: 0.0025 µM
CC(=O)Nc1ccccc1Nc1nc(Nc2ccc3c(NC(=O)CN(C)C)n[nH]c3c2)ncc1Cl | 0.359 | 0.074 | 0.77 | 1.67 | –
CNC(=O)c1ccccc1Nc1nc(Nc2ccc3c(NC(=O)CN4CCC(=O)CC4)n[nH]c3c2)ncc1Cl | 0.063 | 0.187 | 0.569 | 2.03 | –
CC(C)S(=O)(=O)c1ccccc1Nc1nc(Nc2ccc3c(NC(=O)CN4CCC(O)CC4)n[nH]c3c2)ncc1Cl | 0.041 | 0.129 | 0.17 | 1.84 | –
CCN(CC)CC(=O)Nc1n[nH]c2cc(Nc3ncc(Cl)c(Nc4ccccc4S(=O)(=O)C(C)C)n3)ccc12 | 0.021 | 0.057 | 0.045 | 2.56 | IC50 [4]: 0.0038 µM; IC50 [5]: 0.0033 µM; IC50 [6]: > 1 µM; IC50 [7]: 0.0018 µM
CC(C)S(=O)(=O)c1ccccc1Nc1nc(Nc2ccc3c(NC(=O)CN4CCN(C)CC4)n[nH]c3c2)ncc1Cl | 0.034 | 0.089 | 0.52 | 3.58 | –
CCN1CCN(CC(=O)Nc2n[nH]c3cc(Nc4ncc(Cl)c(Nc5ccccc5S(=O)(=O)C(C)C)n4)ccc23)CC1 | 0.026 | 0.084 | 0.14 | 3.97 | –
CC1CCN(CC(=O)Nc2n[nH]c3cc(Nc4ncc(Cl)c(Nc5ccccc5S(=O)(=O)C(C)C)n4)ccc23)CC1 | 0.016 | 0.065 | 0.104 | 1.47 | –
CC(C)S(=O)(=O)c1ccccc1Nc1nc(Nc2ccc3c(NC(=O)CN4CCOCC4)n[nH]c3c2)ncc1Cl | 0.022 | 0.073 | 0.124 | 2.39 | –
CN(C)CC(=O)Nc1n[nH]c2cc(Nc3ncc(Cl)c(Nc4ccccc4NC(=O)C(C)(C)C)n3)ccc12 | 0.718 | 1.57 | 0.912 | 1.69 | –
CC(C)S(=O)(=O)c1ccccc1Nc1nc(Nc2ccc3c(NC(=O)CN4CCN(CCO)CC4)n[nH]c3c2)ncc1Cl | 0.046 | 0.157 | 0.25 | 7.26 | –
CC(C)S(=O)(=O)c1ccccc1Nc1nc(Nc2ccc3c(NC(=O)CN(C)C)n[nH]c3c2)ncc1Cl | – | – | – | – | IC50 [4]: 0.0048 µM; IC50 [5]: 0.0025 µM; IC50 [7]: 0.0038 µM
CCN1CCN(CC(=O)Nc2n[nH]c3cc(Nc4ncc(Cl)c(Nc5ccccc5C(=O)NC)n4)ccc23)CC1 | 0.021 | 0.162 | 0.242 | 4.47 | –
CN(C)CC(=O)Nc1n[nH]c2cc(Nc3ncc(Cl)c(Nc4ccccc4NC(=O)C4CC4)n3)ccc12 | 0.558 | 0.836 | 0.823 | 1.32 | –
CN(C)CC(=O)Nc1n[nH]c2cc(Nc3ncc(Cl)c(Nc4ccccc4NS(=O)(=O)C4CC4)n3)ccc12 | 0.169 | 1.53 | 0.781 | 1.85 | –
CNC(=O)c1ccccc1Nc1nc(Nc2ccc3c(NC(=O)CN4CCC(O)CC4)n[nH]c3c2)ncc1Cl | 0.059 | 0.151 | 0.362 | 2 | –
CNC(=O)c1ccccc1Nc1nc(Nc2ccc3c(NC(=O)CN4CCC(C)CC4)n[nH]c3c2)ncc1Cl | 0.029 | 0.071 | 0.113 | 4.81 | –
CNC(=O)c1ccccc1Nc1nc(Nc2ccc3c(NC(=O)CN4CCCC4)n[nH]c3c2)ncc1Cl | – | – | – | – | IC50 [4]: 0.0044 µM; IC50 [5]: 0.0036 µM; IC50 [7]: 0.0021 µM
CNC(=O)c1ccccc1Nc1nc(Nc2ccc3c(NC(=O)CN4CCN(CCO)CC4)n[nH]c3c2)ncc1Cl | 0.053 | 0.175 | 0.412 | 13.6 | –
CCN(CC)CC(=O)Nc1n[nH]c2cc(Nc3ncc(Cl)c(Nc4ccccc4C(=O)NC)n3)ccc12 | 0.017 | 0.085 | 0.062 | 2.35 | –
CNC(=O)c1ccccc1Nc1nc(Nc2ccc3c(NC(=O)CN4CCOCC4)n[nH]c3c2)ncc1Cl | 0.023 | 0.097 | 0.112 | 2.23 | –
CC(C)S(=O)(=O)c1ccccc1Nc1nc(Nc2ccc3c(NC(=O)CN4CCCCC4)n[nH]c3c2)ncc1Cl | 0.019 | 0.083 | 0.133 | 3.26 | –
